In patent publication US20260176320A1, “MODULATORS OF G-PROTEIN COUPLED RECEPTORS” (priority 2018, published 2026):
Read-outs that look alike come from different tables or passages of the source. Numbered stars: 1 amine (or outer) side, 2 acyl side, 3 side chain; on linkers, the order of the positions; unused ones are H or OH. Square brackets hold non-standard residues; d marks the D form. Side chains are listed from the residue outwards. Peptide text beside a SMILES is read from it. * marks the point of attachment. γGlu = O=C(O)[C@H](CCC(=O)[*:2])N[*:1]; Palmitoyl = CCCCCCCCCCCCCCCC(=O)*; X6 = O=C(CSCC(=O)*)NCCN1CCCCC1=O; Aib = CC(C)(N)C(=O)O

Tests used:
Assay type in all cases: cell-based
GLP-1R [1] = target: T1, GLP-1R (Homo sapiens, UniProt P43220); assay: HitHunter cAMP assay (GLP-1R); conditions: cAMP; for Emax: read-out: (Emax) GLP-1R
T1 sequence (P43220 24-463): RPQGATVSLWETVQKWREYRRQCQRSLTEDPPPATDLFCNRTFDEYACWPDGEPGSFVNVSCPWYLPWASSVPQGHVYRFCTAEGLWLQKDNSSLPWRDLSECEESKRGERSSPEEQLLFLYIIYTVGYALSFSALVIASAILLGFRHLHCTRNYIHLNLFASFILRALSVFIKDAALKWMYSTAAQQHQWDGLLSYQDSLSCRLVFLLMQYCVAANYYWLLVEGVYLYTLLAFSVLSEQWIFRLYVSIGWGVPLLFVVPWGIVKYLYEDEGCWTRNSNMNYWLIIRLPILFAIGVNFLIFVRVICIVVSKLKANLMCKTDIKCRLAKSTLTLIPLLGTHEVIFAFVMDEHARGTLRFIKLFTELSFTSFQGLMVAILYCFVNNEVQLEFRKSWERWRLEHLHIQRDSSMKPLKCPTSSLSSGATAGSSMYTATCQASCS
Method in brief: (§1)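 Agonist stimulation lasts 30 min at room temperature on 10,000 cells per well, with phosphodiesterase blocked by 625 μM IBMX. Accumulated cAMP is quantified by competitive antibody luminescence after overnight development.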

GIP-R = target: T2, GIP-R (Homo sapiens, UniProt P48546); assay: HitHunter cAMP assay (GIP-R); conditions: cAMP; for Emax: read-out: (Emax) GIP-R
T2 sequence (P48546 22-466): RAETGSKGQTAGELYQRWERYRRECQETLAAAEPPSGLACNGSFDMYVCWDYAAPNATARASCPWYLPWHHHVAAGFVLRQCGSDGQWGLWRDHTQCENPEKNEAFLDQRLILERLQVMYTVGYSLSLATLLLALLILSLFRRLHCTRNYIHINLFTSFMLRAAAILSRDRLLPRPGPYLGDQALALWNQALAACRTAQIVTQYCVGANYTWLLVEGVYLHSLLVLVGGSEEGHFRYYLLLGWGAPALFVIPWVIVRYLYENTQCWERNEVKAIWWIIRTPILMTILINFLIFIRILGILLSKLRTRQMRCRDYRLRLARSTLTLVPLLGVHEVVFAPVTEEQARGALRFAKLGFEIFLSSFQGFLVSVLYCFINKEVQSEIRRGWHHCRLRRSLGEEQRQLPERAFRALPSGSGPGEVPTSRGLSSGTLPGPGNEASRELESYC
Method in brief: as §1

GLP-1R [2] = target: T1, GLP-1R; assay: PathHunter β-arrestin assay
Method in brief: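 Recruitment of β-arrestin is measured by luminescence after cells, plated overnight, receive serially diluted agonist for 90 min at 37 °C in medium with 0.2% BSA. Detection reagent then develops for 3 h at room temperature, protected from light.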

[3] = Table 3A, read-out: EC50 GLP-1R/nM
[4] = PathHunter β-arrestin assay, read-out: β-arrestin activity EC50
[5] = Table 3A, read-out: EC50 GIP-R/nM
[6] = Table 3, read-out: EC50 GLP-1R/nM
[7] = Table 3, read-out: EC50 GIP-R/nM

SMILES	EC50 (GLP-1R [1]; EC50 GLP-1R/nM, Table 3) [nM]	EC50 (GLP-1R [1]; EC50 GLP-1R/nM, Table 3A) [nM]	Emax (GLP-1R [1]; Table 3) [%]	Emax (GLP-1R [1]; Table 3A) [%]	EC50 (GIP-R; EC50 GIP-R/nM, Table 3) [nM]	EC50 (GIP-R; EC50 GIP-R/nM, Table 3A) [nM]	Emax at 1 µM (GIP-R; read-out: (Emax) GIP-R at 1 μM, Table 3) [%]	Emax at 1 µM (GIP-R; read-out: (Emax) GIP-R at 1 μM, Table 3A) [%]	EC50 (GLP-1R [2]) [nM]	Emax (GIP-R; Table 3) [%]	Emax (GIP-R; Table 3A) [%]	EC50 (GLP-1R [1]; [3]) [nM]	EC50 (GLP-1R [2]; [4]) [nM]	EC50 (GIP-R; [5]) [nM]	EC50 (GLP-1R [1]; [6]) [nM]	EC50 (GIP-R; [7]) [nM]
CC[C@H](C)[C@H](NC(=O)[C@H](CO)NC(=O)[C@H](Cc1ccc(O)cc1)NC(=O)[C@H](CC(=O)O)NC(=O)[C@H](CO)NC(=O)[C@@H](NC(=O)[C@H](Cc1ccccc1)NC(=O)[C@@H](NC(=O)CNC(=O)[C@H](CCC(=O)O)NC(=O)CSCC(=O)NCCn1c(C)cc(C)cc1=O)[C@@H](C)O)[C@@H](C)O)C(=O)N[C@@H](Cc1ccc(O)cc1)C(=O)N[C@@H](CC(C)C)C(=O)N[C@@H](CC(=O)O)C(=O)N[C@@H](CCCCN)C(=O)N[C@@H](CCC(N)=O)C(=O)N[C@@H](C)C(=O)N[C@@H](C)C(=O)NC(C)(C)C(=O)N[C@@H](CCC(=O)O)C(=O)N[C@@H](Cc1ccccc1)C(=O)N[C@H](C(=O)N[C@@H](CC(N)=O)C(=O)N[C@@H](Cc1c[nH]c2ccccc12)C(=O)N[C@@H](CC(C)C)C(=O)N[C@@H](CC(C)C)C(=O)N[C@@H](C)C(=O)NCC(=O)NCC(=O)N1CCC[C@H]1C(=O)N[C@@H](CO)C(=O)N[C@@H](CO)C(=O)NCC(=O)N[C@@H](C)C(=O)N1CCC[C@H]1C(=O)N1CCC[C@H]1C(=O)N1CCC[C@H]1C(=O)N[C@@H](CO)C(=O)N[C@@H](CCCCN)C(N)=O)C(C)C [Compound 111]	10 to 100	10 to 100	94	94	10 to 100	100 to 1000	12	12	> 1000							
CCCCCCCCCCCCCCCC(=O)N[C@@H](CCC(=O)NCCCC[C@H](NC(=O)[C@H](CO)NC(=O)[C@@H]1CCCN1C(=O)[C@@H]1CCCN1C(=O)[C@@H]1CCCN1C(=O)[C@H](C)NC(=O)CNC(=O)[C@H](CO)NC(=O)[C@H](CO)NC(=O)[C@@H]1CCCN1C(=O)CNC(=O)CNC(=O)[C@H](C)NC(=O)[C@H](CC(C)C)NC(=O)[C@H](CC(C)C)NC(=O)[C@H](Cc1c[nH]c2ccccc12)NC(=O)[C@H](CC(N)=O)NC(=O)[C@@H](NC(=O)[C@H](Cc1ccccc1)NC(=O)[C@H](CCC(=O)O)NC(=O)C(C)(C)NC(=O)[C@H](C)NC(=O)[C@H](C)NC(=O)[C@H](CCC(N)=O)NC(=O)[C@H](CCCCN)NC(=O)[C@H](CC(=O)O)NC(=O)[C@H](CC(C)C)NC(=O)[C@H](Cc1ccc(O)cc1)NC(=O)[C@@H](NC(=O)[C@H](CO)NC(=O)[C@H](Cc1ccc(O)cc1)NC(=O)[C@H](CC(=O)O)NC(=O)[C@H](CO)NC(=O)[C@@H](NC(=O)[C@H](Cc1ccccc1)NC(=O)[C@@H](NC(=O)CNC(=O)[C@H](CCC(=O)O)NC(=O)CSCC(=O)NCCN1C[C@H](OC)CC1=O)[C@@H](C)O)[C@@H](C)O)[C@@H](C)CC)C(C)C)C(N)=O)C(=O)O [Compound 8]	< 0.1	< 0.1	90	90	1 to 10	1 to 10			> 1000	57	57					
CCCCCCCCCCCCCCCC(=O)N[C@@H](CCC(=O)NCCCC[C@H](NC(=O)[C@H](CO)NC(=O)[C@@H]1CCCN1C(=O)[C@@H]1CCCN1C(=O)[C@@H]1CCCN1C(=O)[C@H](C)NC(=O)CNC(=O)[C@H](CO)NC(=O)[C@H](CO)NC(=O)[C@@H]1CCCN1C(=O)CNC(=O)CNC(=O)[C@H](C)NC(=O)[C@H](CC(C)C)NC(=O)[C@H](CC(C)C)NC(=O)[C@H](Cc1c[nH]c2ccccc12)NC(=O)[C@H](CC(N)=O)NC(=O)[C@@H](NC(=O)[C@H](Cc1ccccc1)NC(=O)[C@H](CCC(=O)O)NC(=O)C(C)(C)NC(=O)[C@H](C)NC(=O)[C@H](C)NC(=O)[C@H](CCC(N)=O)NC(=O)[C@H](CCCCN)NC(=O)[C@H](CC(=O)O)NC(=O)[C@H](CC(C)C)NC(=O)[C@H](Cc1ccc(O)cc1)NC(=O)[C@@H](NC(=O)[C@H](CO)NC(=O)[C@H](Cc1ccc(O)cc1)NC(=O)[C@H](CC(=O)O)NC(=O)[C@H](CO)NC(=O)[C@@H](NC(=O)[C@H](Cc1ccccc1)NC(=O)[C@@H](NC(=O)CNC(=O)[C@@H](CC(=O)O)NC(=O)CSCC(=O)NCCN1CCCCC1=O)[C@@H](C)O)[C@@H](C)O)[C@@H](C)CC)C(C)C)C(N)=O)C(=O)O [Compound 218] (X6-[dD]GTFTSDYSIYLDKQAA[Aib]EFVNWLLAGGPSSGAPPPSK([γGlu-Palmitoyl])-NH2)				96							19 to 23	0.1 to 1	> 1000			
CCCCCCCCCCCCCCCC(=O)N[C@@H](CCC(=O)NCCCC[C@H](NC(=O)[C@H](CO)NC(=O)[C@@H]1CCCN1C(=O)[C@@H]1CCCN1C(=O)[C@@H]1CCCN1C(=O)[C@H](C)NC(=O)CNC(=O)[C@H](CO)NC(=O)[C@H](CO)NC(=O)[C@@H]1CCCN1C(=O)CNC(=O)CNC(=O)[C@H](C)NC(=O)[C@H](CC(C)C)NC(=O)[C@H](CC(C)C)NC(=O)[C@H](Cc1c[nH]c2ccccc12)NC(=O)[C@H](CC(N)=O)NC(=O)[C@@H](NC(=O)[C@H](Cc1ccccc1)NC(=O)[C@H](CCC(=O)O)NC(=O)C(C)(C)NC(=O)[C@H](C)NC(=O)[C@H](C)NC(=O)[C@H](CCC(N)=O)NC(=O)[C@H](CCCCN)NC(=O)[C@H](CC(=O)O)NC(=O)[C@H](CC(C)C)NC(=O)[C@H](Cc1ccc(O)cc1)NC(=O)[C@@H](NC(=O)[C@H](CO)NC(=O)[C@H](Cc1ccc(O)cc1)NC(=O)[C@H](CC(=O)O)NC(=O)[C@H](CO)NC(=O)[C@@H](NC(=O)[C@H](Cc1ccccc1)NC(=O)[C@@H](NC(=O)CNC(=O)[C@H](CC(=O)O)NC(=O)CSCC(=O)NCCN1CCCCC1=O)[C@@H](C)O)[C@@H](C)O)[C@@H](C)CC)C(C)C)C(N)=O)C(=O)O [Compound 217] (X6-DGTFTSDYSIYLDKQAA[Aib]EFVNWLLAGGPSSGAPPPSK([γGlu-Palmitoyl])-NH2)				97							58	< 0.1	> 1000	1 to 10		
CC[C@H](C)[C@H](NC(=O)[C@H](CO)NC(=O)[C@H](Cc1ccc(O)cc1)NC(=O)[C@H](CC(=O)O)NC(=O)[C@H](CO)NC(=O)[C@@H](NC(=O)[C@H](Cc1ccccc1)NC(=O)[C@@H](NC(=O)CNC(=O)[C@H](CCC(=O)O)NC(=O)CCCCC(=O)NCCN1C(=O)CSC1=O)[C@@H](C)O)[C@@H](C)O)C(=O)N[C@@H](Cc1ccc(O)cc1)C(=O)N[C@@H](CC(C)C)C(=O)N[C@@H](CC(=O)O)C(=O)N[C@@H](CCCCN)C(=O)N[C@@H](CCC(N)=O)C(=O)N[C@@H](C)C(=O)N[C@@H](C)C(=O)NC(C)(C)C(=O)N[C@@H](CCC(=O)O)C(=O)N[C@@H](Cc1ccccc1)C(=O)N[C@H](C(=O)N[C@@H](CC(N)=O)C(=O)N[C@@H](Cc1c[nH]c2ccccc12)C(=O)N[C@@H](CC(C)C)C(=O)N[C@@H](CC(C)C)C(=O)N[C@@H](C)C(=O)NCC(=O)NCC(=O)N1CCC[C@H]1C(=O)N[C@@H](CO)C(=O)N[C@@H](CO)C(=O)NCC(=O)N[C@@H](C)C(=O)N1CCC[C@H]1C(=O)N1CCC[C@H]1C(=O)N1CCC[C@H]1C(=O)N[C@@H](CO)C(=O)N[C@@H](CCCCN)C(N)=O)C(C)C [Compound 191]			97	97						68	68	1 to 10	> 1000	10 to 100	1 to 10	10 to 100
CCCCCCCCCCCCCCCC(=O)N[C@@H](CCC(=O)NCCCC[C@H](NC(=O)[C@H](CO)NC(=O)[C@@H]1CCCN1C(=O)[C@@H]1CCCN1C(=O)[C@@H]1CCCN1C(=O)[C@H](C)NC(=O)CNC(=O)[C@H](CO)NC(=O)[C@H](CO)NC(=O)[C@@H]1CCCN1C(=O)CNC(=O)CNC(=O)[C@H](C)NC(=O)[C@H](CC(C)C)NC(=O)[C@H](CC(C)C)NC(=O)[C@H](Cc1c[nH]c2ccccc12)NC(=O)[C@H](CC(N)=O)NC(=O)[C@@H](NC(=O)[C@H](Cc1ccccc1)NC(=O)[C@H](CCC(=O)O)NC(=O)C(C)(C)NC(=O)[C@H](C)NC(=O)[C@H](C)NC(=O)[C@H](CCC(N)=O)NC(=O)[C@H](CCCCN)NC(=O)[C@H](CC(=O)O)NC(=O)[C@H](CC(C)C)NC(=O)[C@H](Cc1ccc(O)cc1)NC(=O)[C@@H](NC(=O)[C@H](CO)NC(=O)[C@H](Cc1ccc(O)cc1)NC(=O)[C@H](CC(=O)O)NC(=O)[C@H](CO)NC(=O)[C@@H](NC(=O)[C@H](Cc1ccccc1)NC(=O)[C@@H](NC(=O)CNC(=O)[C@H](CCC(=O)O)NC(=O)CSCC(=O)NCCN1CCCNC1=O)[C@@H](C)O)[C@@H](C)O)[C@@H](C)CC)C(C)C)C(N)=O)C(=O)O [Compound 31]			102	102						37	37	1 to 10	> 1000	10 to 100	1 to 10	10 to 100
